Experimental data: the supplement of paper PMC11579375

Legend:
Test in all cases: area under the viability dose-response curve (AUC) (AUC (arbitrary units, max 500 = no viability loss)); higher = less sensitive (higher viability)
Conditions in all cases: exposure time: 120 h; concentration range: 0.1 nM - 10 µM, 6 doses
17F1 = tested on: 17F1 (fetal-I hepatoblastoma organoid with intermediate liver markers)
Description: (§1)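 Patient-derived hepatoblastoma tumor organoids (about 50 organoids per well, 384-well plates, medium with 5% BME) were treated with the PMC pediatric cancer drug library. Each drug was tested in duplicate at 6 concentrations (0.1 nM to 10 µM, 10-fold steps).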

8F1 = tested on: 8F1 (fetal-I hepatoblastoma organoid with intermediate liver markers)
Description: as §1

96F1 = tested on: 96F1 (fetal-I hepatoblastoma organoid with intermediate liver markers)
Description: as §1

13E = tested on: 13E (embryonal-type hepatoblastoma organoid)
Description: as §1

3E = tested on: 3E (embryonal-type hepatoblastoma organoid)
Description: as §1

27F1 = tested on: 27F1 (fetal-I hepatoblastoma organoid with intermediate liver markers)
Description: as §1

13F2 = tested on: 13F2 (fetal-II hepatoblastoma organoid with high liver markers)
Description: as §1

10F2 = tested on: 10F2 (fetal-II hepatoblastoma organoid with high liver markers)
Description: as §1

22E = tested on: 22E (embryonal-type hepatoblastoma organoid)
Description: as §1

17E = tested on: 17E (embryonal-type hepatoblastoma organoid)
Description: as §1

135F2 = tested on: 135F2 (fetal-II hepatoblastoma organoid with high liver markers)
Description: as §1

| Compound | area under the viability dose-response curve (17F1) | area under the viability dose-response curve (8F1) | area under the viability dose-response curve (96F1) | area under the viability dose-response curve (13E) | area under the viability dose-response curve (3E) | area under the viability dose-response curve (27F1) | area under the viability dose-response curve (13F2) | area under the viability dose-response curve (10F2) | area under the viability dose-response curve (22E) | area under the viability dose-response curve (17E) | area under the viability dose-response curve (135F2) |
| --- | --- | --- | --- | --- | --- | --- | --- | --- | --- | --- | --- |
| CN[C@@H](C)C(=O)N[C@H]1CN(C(=O)CC(C)C)CC[C@H]2CC[C@@H](C(=O)NC(c3ccccc3)c3ccccc3)N2C1=O [Xevinapant] | 489 | 496 | > 500 | 484 | 351 | > 500 | 498 | 445 | 301 | 454 | > 500 |
| Cc1sc2c(c1C)C(c1ccc(Cl)cc1)=N[C@@H](CC(N)=O)c1nnc(C)n1-2 [CPI-203] | 467 | 447 | 473 | 410 | 342 | 468 | 336 | 335 | 413 | 373 | 334 |
| C#Cc1cccc(Nc2ncnc3cc4c(cc23)OCCOCCOCCO4)c1 [Icotinib] | 465 | 495 | 464 | 497 | 474 | 442 | 406 | 376 | > 500 | 487 | 474 |
| CN(C)C/C=C/C(=O)Nc1cc2c(Nc3ccc(F)c(Cl)c3)ncnc2cc1O[C@H]1CCOC1 [Afatinib] | 408 | 493 | 352 | 472 | 456 | 342 | 271 | 253 | 489 | 491 | 442 |
| CCOc1cc2ncc(C#N)c(Nc3ccc(OCc4ccccn4)c(Cl)c3)c2cc1NC(=O)/C=C/CN(C)C [Neratinib] | 431 | 449 | 416 | 464 | 444 | 362 | 319 | 234 | 453 | 424 | 462 |
| CC(C)C[C@H](NC(=O)CNC(=O)c1cc(Cl)ccc1Cl)B(O)O [Ixazomib] | 278 | 287 | 294 | 282 | 256 | 282 | 264 | 246 | 321 | 247 | 261 |
| S=c1nc[nH]c2nc[nH]c12 [6-Mercaptopurine] | 451 | 465 | 420 | 449 | > 500 | 469 | 443 | 478 | 460 | 429 | 402 |
| CO[C@H]1C[C@@H]2CC[C@@H](C)[C@@](O)(O2)C(=O)C(=O)N2CCCC[C@H]2C(=O)O[C@H]([C@H](C)C[C@@H]2CC[C@@H](OCCO)[C@H](OC)C2)CC(=O)[C@H](C)/C=C(\C)[C@@H](O)[C@@H](OC)C(=O)[C@H](C)C[C@H](C)/C=C/C=C/C=C/1C [Everolimus] | 494 | 467 | 464 | 393 | 303 | > 500 | 327 | 373 | 356 | 334 | 453 |
| Cc1ccc2c(Nc3cccc(Cl)c3F)nccc2c1NC(=O)c1csc2c(N)ncnc12 [Belvarafenib] | > 500 | > 500 | > 500 | > 500 | 497 | 484 | 407 | 334 | 474 | 499 | 389 |
| Nc1ccccc1NC(=O)c1ccc(CNC(=O)OCc2cccnc2)cc1 [Entinostat] | 434 | 426 | 483 | 425 | 386 | 462 | 429 | 358 | 439 | 428 | 455 |
| CC[C@@H]1C(=O)N(C)c2cnc(Nc3ccc(C(=O)N[C@H]4CC[C@H](N5CCN(CC6CC6)CC5)CC4)cc3OC)nc2N1C(C)C [Volasertib] | 331 | 351 | 281 | 263 | 278 | 255 | 278 | 227 | 326 | 249 | 257 |
| Cc1sc2c(c1C)C(c1ccc(Cl)cc1)=N[C@@H](CC(=O)Nc1ccc(O)cc1)c1nnc(C)n1-2 [Birabresib] | 461 | 473 | 478 | 410 | 358 | 482 | 318 | 390 | 399 | 395 | 354 |
| N[C@@H](Cc1ccc(N(CCCl)CCCl)cc1)C(=O)O [Melphalan] | > 500 | 483 | 467 | 417 | > 500 | > 500 | 436 | 414 | > 500 | 434 | 469 |
| CC[C@]1(O)C[C@@H]2CN(CCc3c([nH]c4ccccc34)[C@@](C(=O)OC)(c3cc4c(cc3OC)N(C)[C@H]3[C@@](O)(C(N)=O)[C@H](O)[C@]5(CC)C=CCN6CC[C@]43[C@@H]65)C2)C1 [Vindesine] | 239 | 211 | 173 | 204 | 170 | 238 | 246 | 195 | 219 | 206 | 202 |
| C=CC(=O)Nc1cc(Nc2nccc(-c3cn(C)c4ccccc34)n2)c(OC)cc1N(C)CCN(C)C [Osimertinib] | 468 | 490 | 449 | 424 | 378 | 380 | 364 | 335 | 423 | 448 | 442 |
